Test results reported in ChEMBL document CHEMBL3351493, “Beta-aminoketones as prodrugs for selective irreversible inhibitors of type-1 methionine aminopeptidases” (Bioorg Med Chem Lett, 2014).
Active and inactive are the calls of the source. No cut-off for these calls is given here.

How the values were obtained:
[1] = biological target: T1, Methionine aminopeptidase (Escherichia coli K-12, UniProt P0AE18); assay: Inhibition of C-terminal poly-His-tagged Escherichia coli MetAP expressed in Escherichia coli BL21(DE3) incubated for 30 mins before MGMM substrate addition by fluorescence assay
T1 sequence (P0AE18 whole entry): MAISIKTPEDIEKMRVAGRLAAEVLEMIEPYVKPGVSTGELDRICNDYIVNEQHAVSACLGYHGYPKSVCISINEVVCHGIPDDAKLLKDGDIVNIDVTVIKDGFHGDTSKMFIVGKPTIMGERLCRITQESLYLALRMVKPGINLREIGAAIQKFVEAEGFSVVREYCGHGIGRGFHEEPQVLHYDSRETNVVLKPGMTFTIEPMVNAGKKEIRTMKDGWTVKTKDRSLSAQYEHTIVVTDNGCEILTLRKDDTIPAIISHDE

Escherichia coli = assay: Antimicrobial activity against Escherichia coli BL21(DE3) assessed as inhibition of bacterial growth at 200 uM incubated at 37 degC for 7 hrs; format: functional; details: for inhibition at 200 µM: BL21-DE3, 7 h
HaCaT = assay: Cytotoxicity against human HaCaT cells at 1.6 to 100 ug/ml after 72 hrs by crystal violet assay; format: cell-based
[2] = Cytotoxicity against human Flow 2002 cells at 1.6 to 100 ug/ml after 72 hrs by crystal violet assay; format: cell-based; details: flow 2002, 72 h
A 172 = assay: Cytotoxicity against human A172 cells at 1.6 to 100 ug/ml after 72 hrs by crystal violet assay; format: functional, cell-based
CAPAN-1 = assay: Cytotoxicity against human Capan1 cells at 1.6 to 100 ug/ml after 72 hrs by crystal violet assay; format: functional, cell-based
Ca-Ski = assay: Cytotoxicity against human CaSki cells at 1.6 to 100 ug/ml after 72 hrs by crystal violet assay; format: functional, cell-based
SW707 = assay: Cytotoxicity against human SW707 cells at 1.6 to 100 ug/ml after 72 hrs by crystal violet assay; format: functional, cell-based
Calu-6 = assay: Cytotoxicity against human Calu6 cells at 1.6 to 100 ug/ml after 72 hrs by crystal violet assay; format: functional, cell-based
MeWo = assay: Cytotoxicity against human MeWo cells at 1.6 to 100 ug/ml after 72 hrs by crystal violet assay; format: functional, cell-based
BT-474 = assay: Cytotoxicity against human BT474 cells at 1.6 to 100 ug/ml after 72 hrs by crystal violet assay; format: functional, cell-based
A-431 = assay: Cytotoxicity against human A431 cells at 1.6 to 100 ug/ml after 72 hrs by crystal violet assay; format: functional, cell-based
[3] = biological target: Methionine aminopeptidase 2 (Homo sapiens, UniProt P50579); details: sf9
Description: Inhibition of human MetAP-2 expressed in Sf9 cells incubated for 60 mins before MGMM substrate addition by fluorescence assay

[4] = biological target: Methionine aminopeptidase (Staphylococcus aureus (strain COL), UniProt Q5HEN6); assay: Inhibition of N-terminal poly-His-tagged Staphylococcus aureus COL MetAP expressed in Escherichia coli BL21(DE3) incubated for 30 mins before MGMM substrate addition by fluorescence assay; set-up: species or system Staphylococcus aureus subsp. aureus COL
[5] = Half life assessed as decomposition into amines and unsaturated ketones at 250 uM in 50 mM Tris/maleate pH 7.5 buffer by HPLC method; format: physicochemical; details: Tris/maleate buffer, pH 7.5
[6] = biological target: Methionine aminopeptidase 1 (Homo sapiens, UniProt P53582); assay: Inhibition of N-terminal poly-His-tagged human MetAP-1 expressed in Escherichia coli BL21(DE3) incubated for 30 mins before MGMM substrate addition by fluorescence assay

Methionine aminopeptidase (Staphylococcus aureus (strain COL), UniProt Q5HEN6), sequence (Q5HEN6 whole entry): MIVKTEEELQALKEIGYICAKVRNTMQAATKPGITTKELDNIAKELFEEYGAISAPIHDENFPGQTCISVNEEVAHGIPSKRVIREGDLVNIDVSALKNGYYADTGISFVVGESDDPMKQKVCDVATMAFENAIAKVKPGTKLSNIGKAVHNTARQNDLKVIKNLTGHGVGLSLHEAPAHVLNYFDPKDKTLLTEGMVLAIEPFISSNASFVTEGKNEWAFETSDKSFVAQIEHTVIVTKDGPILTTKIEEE
Methionine aminopeptidase 2, sequence (P50579 whole entry): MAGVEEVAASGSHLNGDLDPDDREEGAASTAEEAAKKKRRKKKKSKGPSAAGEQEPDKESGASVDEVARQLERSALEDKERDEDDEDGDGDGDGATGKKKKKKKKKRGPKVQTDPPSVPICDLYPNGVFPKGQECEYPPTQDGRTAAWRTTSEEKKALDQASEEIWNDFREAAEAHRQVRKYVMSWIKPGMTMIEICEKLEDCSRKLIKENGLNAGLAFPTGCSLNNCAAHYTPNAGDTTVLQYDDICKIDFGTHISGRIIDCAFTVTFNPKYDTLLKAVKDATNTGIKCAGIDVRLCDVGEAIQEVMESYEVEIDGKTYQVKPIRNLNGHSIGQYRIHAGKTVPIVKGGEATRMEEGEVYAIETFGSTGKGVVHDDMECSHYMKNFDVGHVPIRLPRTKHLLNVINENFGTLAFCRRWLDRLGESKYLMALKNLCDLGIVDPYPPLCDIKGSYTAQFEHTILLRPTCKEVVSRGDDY

Structure (SMILES)	IC50 ([1]; read-out: IC50) [nM]	inhibition at 200 µM (Escherichia coli) [%]	Activity (HaCaT)	Activity [2]	Activity (A 172)	Activity (CAPAN-1)	Activity (Ca-Ski)	Activity (SW707)	Activity (Calu-6)	Activity (MeWo)	Activity (BT-474)	Activity (A-431)	IC50 [3]	IC50 ([4]; read-out: IC50) [µM]	half-life at 250 µM [5] [min]	IC50 [1]	IC50 [4]	IC50 [6]	inhibition (Escherichia coli)
C=C1Cc2cc(Br)ccc2C1=O	190	21	Toxic	Toxic	Active	Active	Active	Active	Active	Active	Active	Active	Not Active						
CN(C)CC1Cc2c(cccc2C(F)(F)F)C1=O.Cl (stereo unspecified)	7000	22	Toxic	Toxic	Active	Active	Active	Active	Active	Active	Active	Active	Not Active	46	1730				
Cc1ccc2c(c1)CC(CN(C)C)C2=O.Cl (stereo unspecified)	1100	100	Toxic	Toxic	Active	Active	Active	Active	Active	Active	Active	Active	Not Active	32	24				
C=C1Cc2ccc(OC)cc2C1=O	670		Toxic	Toxic	Active	Active	Active	Active	Active	Active	Active	Active	Not Active						
C=C1Cc2ccc(C)cc2C1=O	800		Toxic	Toxic	Active	Active	Active	Active	Active	Active	Active	Active	Not Active						
Cl.O=C1c2ccccc2CC1CN1CCCCC1 (stereo unspecified)	3100	50	Toxic	Toxic	Active	Active	Active	Active	Active	Active	Active	Active	Not Active	25	16				
CN(C)CC1Cc2cc(Br)ccc2C1=O.Cl (stereo unspecified)	720	57	Toxic	Toxic	Active	Active	Active	Active	Active	Active	Active	Active	Not Active	7.8	6				
C=C1Cc2cc(OC)ccc2C1=O	980		Toxic	Toxic	Active	Active	Active	Active	Active	Active	Active	Active	Not Active						
Cc1ccc2c(c1)C(=O)C(CN(C)C)C2.Cl (stereo unspecified)	700	45	Toxic	Toxic	Active	Active	Active	Active	Active	Active	Active	Active	Not Active	15	14				
COc1ccc(C(=O)CCN(C)C)cc1.Cl			Toxic	Toxic	Active	Active	Active	Active	Active	Active	Active	Active	Not Active			Not Active	Not Active	Not Active	inactive
CN(C)CC1Cc2cc(Cl)ccc2C1=O.Cl (stereo unspecified)	840	71	Toxic	Toxic	Active	Active	Active	Active	Active	Active	Active	Active	Not Active	7	7				
C=C1Cc2cc(OC)c(OC)cc2C1=O	700	25	Toxic	Toxic	Active	Active	Active	Active	Active	Active	Active	Active	Not Active	18.9				Not Active	
C=C1Cc2cc(C)ccc2C1=O	400	100	Toxic	Toxic	Active	Active	Active	Active	Active	Active	Active	Active	Not Active	13.3					
CN(C)CC1Cc2ccccc2C1=O.Cl (stereo unspecified)	2800	90	Toxic	Toxic	Active	Active	Active	Active	Active	Active	Active	Active	Not Active	26	10				
C=C1Cc2cc(Cl)ccc2C1=O	230	27	Toxic	Toxic	Active	Active	Active	Active	Active	Active	Active	Active	Not Active						
COc1ccc2c(c1)CC(CN(C)C)C2=O.Cl (stereo unspecified)	2000	35	Toxic	Toxic	Active	Active	Active	Active	Active	Active	Active	Active	Not Active	42.1	45				
COc1ccc2c(c1)C(=O)C(CN(C)C)C2.Cl (stereo unspecified)	830	19	Toxic	Toxic	Active	Active	Active	Active	Active	Active	Active	Active	Not Active	17	12				
